“Also recorded” adds a separate entry of the source.
What was measured:
[1] = tested on: 308 cells (benign neoplastic mouse keratinocytes); assay: Cornified envelope (cross-linked protein) assay, 308 cells; type: cell-based; conditions: 308 (papilloma), 48 h, 0.1-1 mM
Text: (§1) FIG. 1. MC Increases Cross-linked Protein in Epidermal Cell Lines. Black squares represent HPV 18 human epithelial keratinocytes; black circles represent SV 40 infected human keratinocytes; black triangles represent (SQCC-Y1) cells; white triangles represent (SP-1) benign tumor mouse keratinocytes; white squares represent (308 cells) benign mouse keratinocytes; and white circles represent (I-7) cells mouse squamous cell carcinoma.
(§2) Primary mouse keratinocytes were isolated from BALB/c newborn mouse skin. Primary keratinocytes, the benign neoplastic keratinocyte cell lines 308 and SP-1 (Strickland et al, Cancer Res., 48, 165-169, 1988) and the mouse squamous cell carcinoma line 1-7 (Greenhalgh et al., Proc. Natl. Acad. Sci., 87, 643-647, 1990) were grown in Eagle's minimal essential medium with 8% fetal calf serum (FCS) (chelexed) and penicillin 20 iu/ml, streptomycin 20 ug/ml (P/S). Unless otherwise indicated, the Ca^2+ concentration in medium was adjusted to 0.05 mM (Hennings et al., Cells, 19, 245-254, 1980). […]
(§3) Cells were incubated with MC for 48 hours, then cross-linked protein was isolated and measured as described in Example 1.
(§4) The assay measures insoluble cross-linked protein envelopes as described (Hough-Monroe et al. Analytical biochem., 199, 25-28, 1991), with modifications as follows. […] Absorbance of eluate was measured on a Titertek plate reader at 600 nm.

[2] = tested on: SP-1 cell tumors grafted on athymic nude mice; assay: Grafted SP-1 cell tumor formation in nude mice; type: in vivo, mouse; conditions: topical MC, 1 mM and 100 mM; twice weekly for two weeks or 5 days each week for three weeks
Method: FIGS. 10A and 10B. […] Numbers above bars denote the number of animals with tumors/the number of animals in the group. In panel A, MC was applied twice weekly for two weeks. In panel B, MC was applied on 5 days each week for three weeks.
Skin grafting was performed on athymic nude mice using 0.5×10^6 SP-1 cells with 8×10^6 newborn SENCAR mouse dermal fibroblasts as described (Strickland et al., Carcinogenesis, 14, 205, 1993). Domes (plastic covers placed over the site of skin grafting) were removed one week after grafting, and after a further week, topical application of MC commenced. The agent was applied in 25 ul 90% acetone, 10% DMSO vehicle. Weekly, tumor measurements were recorded up to 5 weeks after grafting.
Grafting was performed as described above. Tumors were measured using calipers at the termination of the experiment and tumors were fixed and sections were taken to confirm the tumor phenotype by microscopy.

EGF receptor = assay: Western blot analysis of in vitro assay with EGF receptor; type: biochemical
[3] = Hori et al., J. Antibiot., 45, 280-282, 1992; cited from earlier work
[4] = tested on: SV 40 infected human keratinocytes; assay: Cornified envelope (cross-linked protein) assay, SV 40 infected keratinocytes; type: cell-based; conditions: 48 h, 0.1-1 mM
Text: as §1, §2, §3, §4

[5] = tested on: HPV 18 infected human keratinocytes; assay: Cornified envelope (cross-linked protein) assay, HPV 18 infected keratinocytes; type: cell-based; conditions: 48 h, 0.1-1 mM
Text: as §1, §2, §3, §4

[6] = tested on: I-7 mouse squamous cell carcinoma cells; assay: Cornified envelope (cross-linked protein) assay, I-7 cells; type: cell-based; conditions: I-7 (carcinoma), 48 h, 0.1-1 mM
Text: as §1, §2, §3, §4

transglutaminase = assay: Transglutaminase activity in primary mouse keratinocytes; type: cell-based
Method: FIG. 7. […] Black columns represent untreated cells in 1.4 mM Ca^2+ medium; and hatched columns represent cells treated with 1 mM MC. Cytosol is represented by "C" and membrane fractions are represented by "M". Results are ±SD (n=2) and were repeated in a similar experiment.
One embodiment of the present invention uses an erbstatin analog, methyl 2,5-dihydroxycinnamate, which forms cross-linked protein envelopes in normal and neoplastic epithelial cells by a mechanism independent of tyrosine kinase inhibition. Methyl 2,5-dihydroxycinnamate (MC) is a tyrosine kinase inhibitor. To assess its ability to induce epithelial cell differentiation, crosslinked protein envelopes were measured after a 48 h incubation with agent. […] To confirm differentiation, MC-treated mouse primary keratinocytes were tested for transglutaminase (TGase) activity, inhibition of protein cross-linking by the TGase inhibitor LTB-2 and HPB-2 and incorporation of the fluorescent TGase substrate dansylcadaverine into envelopes. […] This effect, in concert with growth inhibitory properties, may be useful clinically in the topical treatment of warts or superficial neoplasias of the skin.
Mouse primary keratinocytes were incubated in medium with 1.4 mM Ca^2+ for the indicated times. MC-induced cross-linking commences within 4 hours (see FIG. 3). […]

[7] = tested on: SP-1 benign tumor mouse keratinocytes; assay: Cornified envelope (cross-linked protein) assay, SP-1 cells; type: cell-based
Text: as §1
FIGS. 2A and 2B, 2C and 2D show color phase contrast photographs. SP-1 cells were treated with vehicle (A and C) or 250 μM MC (B and D) for 48 hours. In A and B phase contrast photomicrographs were taken.
Primary mouse keratinocytes were isolated from BALB/c newborn mouse skin. […]
as §3, §4

[8] = tested on: A431 human epidermoid carcinoma cells; assay: Growth inhibition (cell count), A431 cells; type: cell-based; conditions: 75 μM MC, 3 days
Method: FIG. 5. Cross-linked Protein Production vs Growth Inhibition in A431 ([…]) Cells. Cell growth is represented by black circles and crosslinked protein production by white circles. Results are ±SD (n=3) of one experiment, representative of three.
Cells were seeded at low density and were treated with MC for 3 days. Cells were then counted and increase in cell number was compared to untreated controls, or cells were processed for cross-linked protein (FIG. 5).

Compound: COC(=O)C=Cc1cc(O)ccc1O [MC, methyl 2,5-dihydroxycinnamate]
- cross-linked protein (envelope production) [1]: induced crosslinked envelope production; also recorded: increased cross-linked protein in a dose-dependent manner
- growth / formation of grafted SP-1 tumors [2]: inhibited the growth of tumors; also recorded: inhibits Grafted SP-1 cell Tumor Formation; also recorded: inhibit tumor formation
- MC-induced mobility retardation of the EGF receptor, effect of DTT (EGF receptor; DTT, Western blot): did inhibit MC-induced mobility retardation of the EGF receptor
- tyrosine kinase inhibition in presence of DTT (EGF receptor; effect of DTT on MC tyrosine kinase inhibition, in vitro): did not prevent tyrosine kinase inhibition
- half life in serum [3]: short
- cross-linked protein (envelope production) [4]: induced crosslinked envelope production; also recorded: increased cross-linked protein in a dose-dependent manner
- cross-linked protein (envelope production) [5]: induced crosslinked envelope production; also recorded: increased cross-linked protein in a dose-dependent manner
- cross-linked protein (envelope production) [6]: induced crosslinked envelope production; also recorded: increased cross-linked protein in a dose-dependent manner
- transglutaminase activity (transglutaminase; 1 mM MC, 4 hrs, cytosol and membrane fractions): not stimulated; also recorded: does not Increase Transglutaminase Activity
- involvement of transglutaminase in the mode of action (transglutaminase; TGase activity, TGase inhibitors LTB-2 and HPB-2, dansylcadaverine incorporation): refuted the involvement of TGase
- formation of cross-linked cornified envelopes (phase contrast) ([7]; SP-1, 250 μM, 48 hours): formation of cross-linked cornified envelopes
- cross-linked protein (envelope production) ([7]; SP-1, 48 h, 0.1-1 mM): induced crosslinked envelope production; also recorded: increased cross-linked protein in a dose-dependent manner
- inhibition of cell growth [8]: inhibited cell growth significantly

From patent US5610185A, “Method for the treatment of hyperproliferative epithelial skin diseases by topical application of hydroxylated aromatic protein cross-linking compounds” (The United States of America as represented by the …, priority 1995, dated 1997)
